{"source": "patent US7531320B2", "about": "“Modulation of β-catenin/TCF-activated transcription” (priority 2003, dated 2009)", "key": {"CBP": {"molecular_target": "T1, CBP (Homo sapiens, UniProt Q92793)", "T1 construct": "endogenous in cells; host or cells: SW480 nuclear extract", "T1 sequence (Q92793 whole entry)": "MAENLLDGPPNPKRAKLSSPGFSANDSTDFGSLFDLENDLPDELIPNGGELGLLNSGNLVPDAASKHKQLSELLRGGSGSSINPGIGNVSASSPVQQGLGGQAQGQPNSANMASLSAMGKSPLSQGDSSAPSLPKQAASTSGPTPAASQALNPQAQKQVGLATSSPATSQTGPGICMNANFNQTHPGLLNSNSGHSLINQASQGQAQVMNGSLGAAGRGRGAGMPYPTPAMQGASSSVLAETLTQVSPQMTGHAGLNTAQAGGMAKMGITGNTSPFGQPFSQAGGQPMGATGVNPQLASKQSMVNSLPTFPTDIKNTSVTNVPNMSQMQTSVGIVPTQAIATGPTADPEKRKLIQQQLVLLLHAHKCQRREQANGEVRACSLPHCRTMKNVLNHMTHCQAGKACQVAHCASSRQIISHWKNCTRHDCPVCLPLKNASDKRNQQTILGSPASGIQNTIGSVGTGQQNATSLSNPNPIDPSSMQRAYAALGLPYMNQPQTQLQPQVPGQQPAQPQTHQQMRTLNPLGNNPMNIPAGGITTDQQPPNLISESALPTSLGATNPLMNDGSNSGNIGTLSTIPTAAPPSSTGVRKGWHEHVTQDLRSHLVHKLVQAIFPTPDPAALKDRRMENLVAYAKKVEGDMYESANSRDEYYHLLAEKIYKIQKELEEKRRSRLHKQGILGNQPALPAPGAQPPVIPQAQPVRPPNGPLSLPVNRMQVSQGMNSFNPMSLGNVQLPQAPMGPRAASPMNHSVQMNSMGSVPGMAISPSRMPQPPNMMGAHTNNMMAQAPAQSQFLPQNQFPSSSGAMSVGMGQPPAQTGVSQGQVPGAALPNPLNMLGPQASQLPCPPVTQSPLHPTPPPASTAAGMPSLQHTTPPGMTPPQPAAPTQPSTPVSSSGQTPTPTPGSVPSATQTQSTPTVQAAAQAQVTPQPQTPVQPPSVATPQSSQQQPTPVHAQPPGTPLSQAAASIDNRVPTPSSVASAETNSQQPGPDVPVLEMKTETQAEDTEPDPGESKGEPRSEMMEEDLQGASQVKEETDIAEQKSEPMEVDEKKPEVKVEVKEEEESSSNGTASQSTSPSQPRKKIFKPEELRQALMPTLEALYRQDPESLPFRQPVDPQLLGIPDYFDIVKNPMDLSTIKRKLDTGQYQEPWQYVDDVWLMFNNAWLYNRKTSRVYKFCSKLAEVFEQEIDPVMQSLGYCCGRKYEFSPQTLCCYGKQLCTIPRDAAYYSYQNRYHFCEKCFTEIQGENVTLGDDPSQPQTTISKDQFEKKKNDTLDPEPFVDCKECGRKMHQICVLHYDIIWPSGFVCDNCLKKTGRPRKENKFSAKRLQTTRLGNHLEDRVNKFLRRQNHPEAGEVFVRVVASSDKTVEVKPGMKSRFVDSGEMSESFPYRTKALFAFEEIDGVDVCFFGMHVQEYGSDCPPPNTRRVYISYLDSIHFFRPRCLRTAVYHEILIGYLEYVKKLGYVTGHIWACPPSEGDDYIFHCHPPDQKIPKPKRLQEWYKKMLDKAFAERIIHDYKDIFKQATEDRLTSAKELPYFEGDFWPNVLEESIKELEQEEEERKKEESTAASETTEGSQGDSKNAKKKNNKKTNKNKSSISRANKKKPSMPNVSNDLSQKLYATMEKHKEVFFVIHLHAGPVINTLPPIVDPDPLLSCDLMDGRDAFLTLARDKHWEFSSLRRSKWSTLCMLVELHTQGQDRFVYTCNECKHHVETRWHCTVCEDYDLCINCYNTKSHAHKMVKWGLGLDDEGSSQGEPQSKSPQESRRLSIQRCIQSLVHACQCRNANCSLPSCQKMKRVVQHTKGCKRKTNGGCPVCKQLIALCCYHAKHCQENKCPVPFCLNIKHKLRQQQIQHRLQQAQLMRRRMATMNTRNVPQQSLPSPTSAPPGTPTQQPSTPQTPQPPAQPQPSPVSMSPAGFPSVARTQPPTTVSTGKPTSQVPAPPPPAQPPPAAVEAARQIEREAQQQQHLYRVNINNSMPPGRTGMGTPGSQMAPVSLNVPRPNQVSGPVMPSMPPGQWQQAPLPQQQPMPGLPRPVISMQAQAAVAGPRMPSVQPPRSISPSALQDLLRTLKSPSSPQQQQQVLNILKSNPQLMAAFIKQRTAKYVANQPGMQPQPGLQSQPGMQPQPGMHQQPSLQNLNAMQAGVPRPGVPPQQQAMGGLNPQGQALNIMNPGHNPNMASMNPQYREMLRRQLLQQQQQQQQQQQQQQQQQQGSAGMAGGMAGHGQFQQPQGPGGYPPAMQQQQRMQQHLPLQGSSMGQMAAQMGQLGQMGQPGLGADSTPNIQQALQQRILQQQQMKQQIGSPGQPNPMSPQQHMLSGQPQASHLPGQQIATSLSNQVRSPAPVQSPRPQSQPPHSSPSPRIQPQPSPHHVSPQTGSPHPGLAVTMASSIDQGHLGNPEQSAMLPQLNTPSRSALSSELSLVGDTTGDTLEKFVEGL", "assay": "COMPOUND 2 streptavidin-agarose affinity pull-down from SW480 nuclear extracts", "assay_type": "binding", "conditions": "SW480 nuclear extracts, 20 μM preincubation", "procedure": "FIG. 1. COMPOUND 1 inhibits β-catenin/TCF transcription. • A(i) and A(ii). Structures of COMPOUND 1, COMPOUND 2, COMPOUND 3, COMPOUND 4, and COMPOUND 5. • B(i) and B(ii). […] SW480 cells (10^5), (FIG. 1B(i)), were transfected with β-catenin/TCF luciferase construct. Cells were treated with COMPOUND 1 (1-64 μM). 24 hours post treatment lysates were prepared and subjected to dual luciferase assay. The data is represented in different form in FIG. 1B(ii). • C. COMPOUND 1 has no effect on NFAT reporter construct. Stably transfected Jurkat cells, right panel, with an NFAT reporter construct, were stimulated with PMA (10 ng/ml)/lonomycin (1 μg/ml), and treated with COMPOUND 1 (0.781-50 μM). 24 hours post treatment lysates were prepared and subjected to dual luciferase assay. All experiments were performed in duplicate and the values plotted as means +/−standard deviation. • D. CBP is the molecular target of COMPOUND 1. Nuclear extracts of SW480 cells were incubated with streptavidin-agarose beads coated with COMPOUND 2 (25 μM). Beads were washed 3 times and the eluted were subjected to gel electrophoresis and immunoblotting, with anti-CBP antibodies. […] The lysates were desalted using G-25 1 cc columns (Pharmacia) to remove the unbound ^14C-labeled-COMPOUND 1, and ^14C-labeled-COMPOUND 1 incorporation was measured. […]"}, "[1]": {"system": "caspase-3/7 in CCD18Co cells", "assay": "Caspase-3/7 activity assay, normal colonocytes CCD18Co", "assay_type": "cell-based, human", "conditions": "25 μM, 24 hours", "procedure": "FIG. 6. • A. COMPOUND 1 arrests cells in G1. FACS analysis was performed on SW480 (lower panel) and HCT116 (upper panel) cells treated for 24 hours with either COMPOUND 1 (25 μM) (right) or control (0.5% DMSO (left). 5.5×10^6 cells were fixed and stained with propidium iodide (PI). G0/G1, S, and G2/M are indicated by arrows. • B. COMPOUND 1 selectively activates caspases in colon carcinoma cell lines. SW480 and HCT116 (left graph) cells (10^5) along with the normal colonocytes, CCD18Co (right graph) were treated with either control (0.5% DMSO) or COMPOUND 1 (25 μM). 24 hours post treatment, cells were lysed and the caspase-3/7 enzymatic activities were measured. Relative fluorescence units (RFU) were calculated by subtracting the unit values of the blank (control, without cells) from the treated samples (COMPOUND 1 or control) and plotted.\nSW480, HCT116, and CCD18Co cells were plated at 10^5 cells per well (96-well plates) for 24 hours prior to treatment. 25 μM of COMPOUND 1 or control (0.5% DMSO) was added to each well. 24 hours post treatment, cells were lysed and caspase activity was measured using a caspase-3/7 activity kit (Apo-One Homogeneous caspase-3/7 assay, #G77905, Promega). Relative fluorescence units (RFU) were obtained by subtracting the unit values of the blank (control, without cells) from the experimental measured values. […]"}}, "data": [{"compound": "O=C1C(Cc2ccc(O)cc2)N2C(=O)CCN(C(=O)NCc3ccccc3)C2CN1Cc1cccc2ccccc12", "note": "(centres unmarked) [COMPOUND 1]", "values": [{"measurement": "Effect of preincubation with COMPOUND 1 on CBP binding to COMPOUND 2", "setting": "CBP", "result": "blocked the binding of CBP"}, {"measurement": "Caspase activation", "setting": "[1]", "result": "not in normal colonocytes"}]}]}
